Experimental data: US20240076293A1, “Compositions and Methods for Inhibiting Fibrosis, Inflammation and Cancer” (Georgia Tech Research Corporation, priority 2020, published 2024)
Where two headings read alike, the source gives them in different places.

Assays:
Type in all cases: cell-based
[1] = system: A549; assay: Anti-proliferation IC50, A549; conditions: Homo sapiens
[2] = system: Hep-G2; assay: Anti-proliferation IC50, Hep-G2; conditions: Homo sapiens, HepG2
[3] = system: VERO; assay: Anti-proliferation IC50, VERO; conditions: Chlorocebus sabaeus
[4] = system: MRC-5; assay: Anti-proliferation IC50, MRC-5; conditions: Homo sapiens, MRC5; Table 2, compounds of formula II
[5] = Anti-proliferation IC50, MRC-5; conditions: human, MRC-5 cells; Table 1, compounds of formula I; NI = no inhibition up to 500 μM
[6] = Table 2, compounds of formula II, read-out: Anti-proliferation IC50 A549
[7] = Table 2, compounds of formula II, read-out: Anti-proliferation IC50 Hep-G2
[8] = Table 2, compounds of formula II, read-out: Anti-proliferation IC50 VERO
[9] = Table 1, compounds of formula I, NI = no inhibition up to 500 μM, read-out: A549 (IC50)
[10] = Table 1, compounds of formula I, NI = no inhibition up to 500 μM, read-out: Hep-G2 (IC50)
[11] = Table 1, compounds of formula I, NI = no inhibition up to 500 μM, read-out: VERO (IC50)

Structure (SMILES): CC[C@@H]1OC(=O)[C@@H](C)[C@H](O)[C@@H](C)[C@H](O[C@H]2O[C@@H](C)C[C@@H](N(C)Cc3ccc(-c4cn(CCNC(=O)CCCC[C@H]5CCSS5)nn4)cc3)[C@@H]2O)C(C)(O)C[C@H](C)CN(C)[C@@H](C)[C@H](O)[C@@]1(C)O (stereo partly drawn)
- IC50 [1, 6]: 27.4 ± 0.5 µM
- IC50 [2, 7]: 14.8 ± 2.1 µM
- IC50 [3, 8]: 47.7 ± 6.2 µM
- IC50 [4]: 17.9 ± 0.5 µM

Structure (SMILES): CC[C@@H]1OC(=O)[C@@H](C)[C@H](O)[C@@H](C)[C@H](O[C@H]2O[C@@H](C)C[C@@H](N(C)Cc3ccc(-c4cn(CCCNC(=O)CCCC[C@H]5CCSS5)nn4)cc3)[C@@H]2O)C(C)(O)C[C@H](C)CN(C)[C@@H](C)[C@H](O)[C@@]1(C)O (stereo partly drawn)
- IC50 [1, 6]: 92.9 ± 13 µM
- IC50 [2, 7]: 157 ± 11.4 µM
- IC50 [3, 8]: 168 ± 19.7 µM
- IC50 [4]: 145 ± 3.5 µM

Structure (SMILES): CC[C@@H]1OC(=O)[C@@H](C)[C@H](O[C@H]2C[C@@](C)(OC)[C@@H](O)[C@H](C)O2)[C@@H](C)[C@H](O[C@H]2O[C@@H](C)C[C@@H](N(C)C)[C@@H]2OC(=O)/C=C/C=C/c2ccc3c(c2)OCO3)C(C)(O)C[C@H](C)CN(C)[C@@H](C)[C@H](O)[C@@]1(C)O (stereo partly drawn)
- IC50 [1, 6]: 15.6 ± 2.6 µM
- IC50 [2, 7]: 5 ± 0.5 µM
- IC50 [3, 8]: 13.2 ± 1.5 µM
- IC50 [4]: 3.8 ± 0.8 µM

Structure (SMILES): CC[C@@H]1OC(=O)[C@@H](C)[C@H](O[C@H]2C[C@@](C)(OC)[C@@H](O)[C@H](C)O2)C(C)[C@H](O[C@H]2O[C@@H](C)C[C@@H](N(C)C(=O)/C=C/C=C/c3ccc4c(c3)OCO4)[C@@H]2O)C(C)(O)C[C@H](C)CN(C)[C@@H](C)[C@H](O)[C@@]1(C)O (stereo partly drawn)
- IC50 [1, 6]: 19.6 ± 1.8 µM
- IC50 [2, 7]: 10.2 ± 1.9 µM
- IC50 [3, 8]: 12.9 µM
- IC50 [4]: 11.4 ± 0.4 µM

Structure (SMILES): CC[C@H]1OC(=O)[C@H](C)[C@@H](O[C@H]2C[C@@](C)(OC)[C@@H](O)[C@H](C)O2)[C@H](C)[C@@H](O[C@@H]2O[C@H](C)C[C@H](N(C)Cc3ccc(-n4cc(C)ccc4=O)cc3)[C@H]2O)[C@](C)(O)C[C@@H](C)CN(C)[C@H](C)[C@@H](O)[C@]1(C)O [Compound 11a]
- IC50 [1, 6]: 47.2 ± 5.1 µM
- IC50 [2, 7]: 33 ± 5.4 µM
- IC50 [3, 8]: 47.2 ± 0.4 µM
- IC50 [4]: 55.8 ± 1.9 µM

Structure (SMILES): CC[C@H]1OC(=O)[C@H](C)[C@@H](O[C@H]2C[C@@](C)(OC)[C@@H](O)[C@H](C)O2)[C@H](C)[C@@H](O[C@@H]2O[C@H](C)C[C@H](N(C)Cc3cn(Cc4ccc(-n5cc(C)ccc5=O)cc4)nn3)[C@H]2O)[C@](C)(O)C[C@@H](C)CN(C)[C@H](C)[C@@H](O)[C@]1(C)O [Compound 11b]
- IC50 [1, 6]: 265 ± 4 µM
- IC50 [2, 7]: 234 ± 31.1 µM
- IC50 [3, 8]: 122 ± 19.4 µM
- IC50 [4]: 121 ± 14.1 µM

Structure (SMILES): CC[C@H]1OC(=O)[C@H](C)[C@@H](O[C@H]2C[C@@](C)(OC)[C@@H](O)[C@H](C)O2)[C@H](C)[C@@H](O[C@@H]2O[C@H](C)C[C@H](N(C)Cc3ccc(-c4cn(Cc5ccc(-n6cc(C)ccc6=O)cc5)nn4)cc3)[C@H]2O)[C@](C)(O)C[C@@H](C)CN(C)[C@H](C)[C@@H](O)[C@]1(C)O [Compound 11c]
- IC50 [1, 6]: 18.4 ± 4.4 µM
- IC50 [2, 7]: 11.1 ± 0.3 µM
- IC50 [3, 8]: 16.2 ± 2.8 µM
- IC50 [4]: 13.4 ± 0.1 µM

Structure (SMILES): CCC1OC(=O)[C@H](C)[C@H](OC2C[C@@](C)(OC)[C@@H](O)[C@H](C)O2)[C@H](C)[C@@H](OC2O[C@H](C)C[C@H](N(C)Cc3cn(CCc4ccc(-n5cc(C)ccc5=O)cc4)nn3)[C@H]2O)[C@@](C)(OC)C[C@@H](C)C(=O)[C@H](C)[C@@H](O)[C@]1(C)O (stereo partly drawn) [Compound 12b]
- IC50 [1, 9]: 116 ± 4.1 µM
- IC50 [2, 10]: 122 ± 3.7 µM
- IC50 [3, 11]: 104 ± 20.3 µM
- IC50 [5]: 84 ± 4.5 µM

Structure (SMILES): CCC1OC(=O)[C@H](C)[C@H](OC2C[C@@](C)(OC)[C@@H](O)[C@H](C)O2)[C@H](C)[C@@H](OC2O[C@H](C)C[C@H](N(C)Cc3ccc(-c4cn(CCc5ccc(-n6cc(C)ccc6=O)cc5)nn4)cc3)[C@H]2O)[C@@](C)(OC)C[C@@H](C)C(=O)[C@H](C)[C@@H](O)[C@]1(C)O (stereo partly drawn) [Compound 12c]
- IC50 [1, 9]: 35.3 ± 1.5 µM
- IC50 [2, 10]: 28.1 ± 1.8 µM
- IC50 [3, 11]: 14.2 ± 0.3 µM
- IC50 [5]: 13.1 ± 1.2 µM

Structure (SMILES): CC[C@H]1OC(=O)[C@H](C)[C@@H](O[C@H]2C[C@@](C)(OC)[C@@H](O)[C@H](C)O2)[C@H](C)[C@@H](O[C@@H]2O[C@H](C)C[C@H](N(C)CCc3ccc(-n4cc(C)ccc4=O)cc3)[C@H]2O)[C@](C)(O)C[C@@H](C)CN(C)[C@H](C)[C@@H](O)[C@]1(C)O [Compound 13a]
- IC50 [1, 6]: 40.8 ± 4 µM
- IC50 [2, 7]: 27.2 ± 2.3 µM
- IC50 [3, 8]: 30.3 ± 5.2 µM
- IC50 [4]: 36.1 ± 3.3 µM

Structure (SMILES): CC[C@H]1OC(=O)[C@H](C)[C@@H](O[C@H]2C[C@@](C)(OC)[C@@H](O)[C@H](C)O2)[C@H](C)[C@@H](O[C@@H]2O[C@H](C)C[C@H](N(C)Cc3cn(CCc4ccc(-n5cc(C)ccc5=O)cc4)nn3)[C@H]2O)[C@](C)(O)C[C@@H](C)CN(C)[C@H](C)[C@@H](O)[C@]1(C)O [Compound 13b]
- IC50 [1, 6]: 144 ± 24.5 µM
- IC50 [2, 7]: 163.4 ± 1.6 µM
- IC50 [3, 8]: 151 ± 30.6 µM
- IC50 [4]: 172 ± 26.9 µM

Structure (SMILES): CCC1OC(=O)[C@H](C)[C@H](OC2C[C@@](C)(OC)[C@@H](O)[C@H](C)O2)[C@H](C)[C@@H](OC2O[C@H](C)C[C@H](N(C)CCCCc3ccc(-n4cc(C)ccc4=O)cc3)[C@H]2O)[C@@](C)(OC)C[C@@H](C)C(=O)[C@H](C)[C@@H](O)[C@]1(C)O (stereo partly drawn) [Compound 14a]
- IC50 [1, 9]: 16.3 ± 1.6 µM
- IC50 [2, 10]: 30.9 ± 1.4 µM
- IC50 [3, 11]: 19 ± 3.7 µM
- IC50 [5]: 15.7 ± 2.3 µM

Structure (SMILES): CCC1OC(=O)[C@H](C)[C@H](OC2C[C@@](C)(OC)[C@@H](O)[C@H](C)O2)[C@H](C)[C@@H](OC2O[C@H](C)C[C@H](N(C)Cc3cn(CCCCc4ccc(-n5cc(C)ccc5=O)cc4)nn3)[C@H]2O)[C@@](C)(OC)C[C@@H](C)C(=O)[C@H](C)[C@@H](O)[C@]1(C)O (stereo partly drawn) [Compound 14b]
- IC50 [1, 9]: 28.7 ± 3.4 µM
- IC50 [2, 10]: 44.8 ± 3.6 µM
- IC50 [3, 11]: 33.3 ± 1.9 µM
- IC50 [5]: 32.8 ± 5.1 µM

Structure (SMILES): CCC1OC(=O)[C@H](C)[C@H](OC2C[C@@](C)(OC)[C@@H](O)[C@H](C)O2)[C@H](C)[C@@H](OC2O[C@H](C)C[C@H](N(C)Cc3ccc(-c4cn(CCCCc5ccc(-n6cc(C)ccc6=O)cc5)nn4)cc3)[C@H]2O)[C@@](C)(OC)C[C@@H](C)C(=O)[C@H](C)[C@@H](O)[C@]1(C)O (stereo partly drawn) [Compound 14c]
- IC50 [1, 9]: 10.9 ± 0.4 µM
- IC50 [2, 10]: 36.4 ± 6.6 µM
- IC50 [3, 11]: 12.4 ± 0.2 µM
- IC50 [5]: 11.6 ± 0.3 µM

Structure (SMILES): CCC1OC(=O)[C@H](C)[C@H](OC2C[C@@](C)(OC)[C@@H](O)[C@H](C)O2)[C@H](C)[C@@H](OC2O[C@H](C)C[C@H](N(C)CC#Cc3ccc(-n4cc(C)ccc4=O)cc3)[C@H]2O)[C@@](C)(OC)C[C@@H](C)C(=O)[C@H](C)[C@@H](O)[C@]1(C)O (stereo partly drawn) [Compound 19a]
- IC50 [1, 9]: 44.1 ± 10.8 µM
- IC50 [2, 10]: 50.7 ± 3 µM
- IC50 [3, 11]: 55.5 ± 2.6 µM
- IC50 [5]: 82.6 ± 0.3 µM

Structure (SMILES): CCC1OC(=O)[C@H](C)[C@H](OC2C[C@@](C)(OC)[C@@H](O)[C@H](C)O2)[C@H](C)[C@@H](OC2O[C@H](C)C[C@H](N(C)CCC#Cc3ccc(-n4cc(C)ccc4=O)cc3)[C@H]2O)[C@@](C)(OC)C[C@@H](C)C(=O)[C@H](C)[C@@H](O)[C@]1(C)O (stereo partly drawn) [Compound 19b]
- IC50 [1, 9]: 59.9 ± 0.8 µM
- IC50 [2, 10]: 60.9 ± 9 µM
- IC50 [3, 11]: 130 ± 21.2 µM
- IC50 [5]: > 500 µM

Structure (SMILES): CCC1OC(=O)[C@H](C)[C@H](OC2C[C@@](C)(OC)[C@@H](O)[C@H](C)O2)[C@H](C)[C@@H](OC2O[C@H](C)C[C@H](N(C)CCCC#Cc3ccc(-n4cc(C)ccc4=O)cc3)[C@H]2O)[C@@](C)(OC)C[C@@H](C)C(=O)[C@H](C)[C@@H](O)[C@]1(C)O (stereo partly drawn) [Compound 19c]
- IC50 [1, 9]: 58.6 ± 1.4 µM
- IC50 [2, 10]: 24 ± 1.2 µM
- IC50 [3, 11]: 55.5 ± 0.4 µM
- IC50 [5]: 15.2 ± 0.1 µM

Structure (SMILES): CCC1OC(=O)[C@H](C)[C@H](OC2C[C@@](C)(OC)[C@@H](O)[C@H](C)O2)[C@H](C)[C@@H](OC2O[C@H](C)C[C@H](N(C)CCCCC#Cc3ccc(-n4cc(C)ccc4=O)cc3)[C@H]2O)[C@@](C)(OC)C[C@@H](C)C(=O)[C@H](C)[C@@H](O)[C@]1(C)O (stereo partly drawn) [Compound 19d]
- IC50 [1, 9]: 35.4 ± 2.1 µM
- IC50 [2, 10]: 32 ± 0.1 µM
- IC50 [3, 11]: 24.3 ± 0.1 µM
- IC50 [5]: 28.9 ± 1.9 µM

Structure (SMILES): CCC1OC(=O)[C@H](C)[C@H](OC2C[C@@](C)(OC)[C@@H](O)[C@H](C)O2)[C@H](C)[C@@H](OC2O[C@H](C)C[C@H](N(C)CCCCCC#Cc3ccc(-n4cc(C)ccc4=O)cc3)[C@H]2O)[C@@](C)(OC)C[C@@H](C)C(=O)[C@H](C)[C@@H](O)[C@]1(C)O (stereo partly drawn) [Compound 19e]
- IC50 [1, 9]: 23.8 ± 2.1 µM
- IC50 [2, 10]: 23.7 ± 2 µM
- IC50 [3, 11]: 13.2 ± 0.7 µM
- IC50 [5]: 24.2 ± 0.6 µM

Structure (SMILES): O=C(O)/C=C/C=C/c1ccc2c(c1)OCO2 [Piperic acid (PPA), Piperic acid, reference compound]
- IC50 [1, 9]: > 500 µM
- IC50 [2, 10]: > 500 µM
- IC50 [3, 11]: > 500 µM
- IC50 [5]: > 500 µM

Structure (SMILES): Cc1ccc(=O)n(-c2ccccc2)c1 [Pirfenidone (Pir), Pirfenidone, reference compound]
- IC50 [1, 9]: 5410 ± 241 µM
- IC50 [2, 10]: 10900 µM
- IC50 [3, 11]: 10788 ± 0.6 µM
- IC50 [5]: 5300 ± 178 µM
